Reference: US11274124B2, “Tubulysin analogues as anticancer agents and payloads for antibody-drug conjugates and methods of treatment therewith” (William Marsh Rice University, priority 2017, dated 2022)
Like-named read-outs stand apart in the source and are kept apart here.

Tests used:
[1] = test system: MES SA DX (MES SA cell line with marked multi-drug resistance); test: In vitro cytotoxicity assay (CellTiter-Glo, 72 hours), MES SA DX; conditions: for IC50: Homo sapiens, MES-SA, 72 h
[2] = test system: MES SA, MES SA DX and HEK 293T cells; test: In vitro cytotoxicity assay, structure-activity discussion over the cell lines tested; conditions: refers to Tables 2 and 3
[3] = test system: MES SA (uterine sarcoma cell line); test: In vitro cytotoxicity assay (CellTiter-Glo, 72 hours), MES SA; assay type: cell-based; conditions: Homo sapiens, MES-SA
[4] = test system: HEK 293T (human embryonic kidney cancer cell line); test: In vitro cytotoxicity assay (CellTiter-Glo, 72 hours), HEK 293T; assay type: cell-based; conditions: Homo sapiens, HEK-293T
[5] = read-out: MES SA DX, IC50 Value in nM
[6] = 72 h, read-out: MES SA, IC50 Value in nM
[7] = 72 h, read-out: HEK 293T, IC50 Value in nM

SMILES	IC50 [1, 5] [nM]	cytotoxicity potency (in words, structure-activity discussion) [2]	IC50 [3, 6] [nM]	IC50 [4, 7] [nM]	IC50 ([1]; read-out: MES SA DX, IC50) [nM]	IC50 ([3]; 72 h, read-out: MES SA, IC50) [nM]	IC50 ([4]; 72 h, read-out: HEK 293T, IC50) [nM]	cytotoxicities against the marked drug resistant cancer cell line MES SA DX (in words) [1]	IC50 ([3]; Table 2, 72 hours, CellTiter-Glo, read-out: MES SA, IC50 Value in nM) [nM]	IC50 ([4]; Table 2, 72 hours, CellTiter-Glo, read-out: HEK 293T, IC50 Value in nM) [nM]
Cc1sc(C(=O)C[C@H](C(C)C)N(C)C(=O)[C@@H](NC(=O)[C@H]2CCCCN2C)C(C)C)nc1C(=O)N[C@@H](Cc1ccccc1)C[C@H](C)C(=O)O [Tb68, (2S,4R)-2-Methyl-4-[({5-methyl-2-[(3R)-4-methyl-3-{methyl[(2S)-3-methyl-2-({[(2R)-1-methyl-piperidin-2-yl]carbonyl}amino)butanoyl]amino}pentanoyl]-1,3-thiazol-4-yl}carbonyl)amino]-5-phenylpentanoic acid]	> 1000	significant reduction in potency	> 1000	> 1000						
CC(C)[C@H](NC(=O)[C@H]1CCCCN1C)C(=O)N(C)[C@H](C[C@@H](O)c1nc(C(=O)N[C@@H](Cc2ccccc2)C[C@H](C)C(=O)O)cs1)C(C)C [Tb60, (2S,4R)-4-[({2-[(1R,3R)-1-Hydroxy-4-methyl-3-{methyl[(2S)-3-methyl-2-({[(2R)-1-methylpiperidin-2-yl]carbonyl}amino)butanoyl]amino}pentyl]-1,3-thiazol-4-yl}carbonyl)amino]-2-methyl-5-phenylpentanoic acid]	> 2500	significant reduction in potency	14	6.34						
CCOC(=O)[C@@H](C)C[C@H](Cc1ccccc1)NC(=O)c1csc([C@@H](C[C@H](C(C)C)N(C)C(=O)[C@@H](NC(=O)[C@H]2CCCCN2C)C(C)(C)C)OC(C)=O)n1 [Tb106, Ethyl (2S,4R)-4-[({2-[(1R,3R)-1-acetoxy-3-{[(2S)-3,3-dimethyl-2-({[(2R)-1-methylpiperidin-2-yl]car-bonyl}amino)butanoyl](methyl)amino}-4-methylpentyl]-1,3-thiazol-4-yl}carbonyl)amino]-2-methyl-5-phenylpentanoate]	2.73	exceptional potencies	0.12	0.13	2.73	0.12	0.13			
CCOC(=O)[C@@H](C)C[C@H](Cc1ccccc1)NC(=O)c1csc([C@@H](C[C@H](C(C)C)N(C)C(=O)CNC(=O)[C@H]2CCCCN2C)OC(C)=O)n1 [Tb88, Ethyl (2S,4R)-4-[({2-[(1R,3R)-1-acetoxy-4-methyl-3-{methyl[({[(2R)-1-methylpiperidin-2-yl]carbonyl}amino)acetyl]amino}pentyl]-1,3-thiazol-4-yl}carbonyl)amino]-2-methyl-5-phenylpentanoate]	> 2500	no significant activity	458	494						
CC[C@H](C)[C@H](NC(=O)c1nccn1C)C(=O)N(C)[C@H](C[C@@H](OC(C)=O)c1nc(C(=O)N[C@@H](Cc2ccccc2)C[C@H](C)C(=O)OC)cs1)C(C)C [Tb51]	> 1000	insignificant or low biological activity	> 1000	> 1000						
CCC(C)(C)[C@H](NC(=O)[C@H]1CCCCN1C)C(=O)N(C)[C@H](C[C@@H](OC(C)=O)c1nc(C(=O)N[C@@H](Cc2ccccc2)C[C@H](C)C(=O)O)cs1)C(C)C [Tb109, (2S,4R)-4-[({2-[(1R,3R)-1-Acetoxy-3-{[(2S)-3,3-dimethyl-2-({[(2R)-1-methylpiperidin-2-yl]car-bonyl}amino)pentanoyl](methyl)amino}-4-methylpentyl]-1,3-thiazol-4-yl}carbonyl)amino]-2-methyl-5-phenylpentanoic acid]	1.39	exceptional potencies	0.36	0.01	1.39	0.36	0.01	relatively potent (low nanomolar)		
CC(=O)O[C@H](C[C@H](C(C)C)N(C)C(=O)[C@@H](NC(=O)[C@H]1CCCCN1C)C(C)(C)C)c1nc(C(=O)N[C@@H](Cc2ccccc2)C[C@H](C)C(=O)O)cs1 [Tb107, (2S,4R)-4-[({2-[(1R,3R)-1-Acetoxy-3-{[(2S)-3,3-dimethyl-2-({[(2R)-1-methylpiperidin-2-yl]carbonyl}amino)butanoyl](methyl)amino}-4-methylpentyl]-1,3-thiazol-4-yl}carbonyl)amino]-2-methyl-5-phenylpentanoic acid]	4.05	exceptional potencies	0.01	0.02	4.05	0.01	0.02	relatively potent (low nanomolar)		
CC(=O)O[C@H](C[C@H](C(C)C)N(C)C(=O)[C@@H](NC(=O)[C@H]1CCCCN1C)C(C)C)c1nc(C(=O)N[C@@H](Cc2ccccc2)C[C@H](C)C(=O)O)c(C)s1 [Tb67, (2S,4R)-4-[({2-[(1R,3R)-1-Acetoxy-4-methyl-3-{methyl[(2S)-3-methyl-2-({[(2R)-1-methylpiperidin-2-yl]carbonyl}amino)butanoyl]amino}pentyl]-5-methyl-1,3-thiazol-4-yl}carbonyl)amino]-2-methyl-5-phenylpentanoic acid]	71.5	some loss of potency	0.836	0.143	71.5	0.836	0.144			
CCOC(=O)[C@@H](C)CC(Cc1ccccc1)NC(=O)c1csc([C@@H](CC(C(C)C)N(C)C(=O)[C@@H](NC(=O)[C@H]2C[C@H](O[Si](C)(C)C(C)(C)C)CCN2C)C(C)C)OC(C)=O)n1 (stereo in doubt) [Tb77, Ethyl (2S,4S)-4-[({2-[(1R,3S)-1-acetoxy-3-{[(2S)-2-({[(4R)-4-{[tert-butyl(dimethyl)silyl]oxy}-1-meth-ylpiperidin-2-yl]carbonyl}amino)-3-methylbutanoyl](methyl)amino}-4-methylpentyl]-1,3-thiazol-4-yl}carbonyl)amino]-2-methyl-5-phenylpentanoate]	> 2500	insignificant or low biological activity	848	> 400						
CCCCN1CCCC[C@@H]1C(=O)N[C@H](C(=O)N(C)[C@H](CCc1nc(C(=O)N[C@@H](Cc2ccccc2)C[C@H](C)C(=O)OC)cs1)C(C)C)C(C)C [PTb-D49]	> 1000	insignificant or low biological activity							> 1000	> 1000
COC(=O)[C@@H](C)C[C@H](Cc1ccccc1)NC(=O)c1csc(C(=O)C[C@H](C(C)C)N(C)C(=O)[C@@H](NC(=O)[C@H]2CCCCN2C)C(C)C)n1 [Tb63, Methyl (2S,4R)-2-methyl-4-[({2-[(3R)-4-methyl-3-{methyl[(2S)-3-methyl-2-({[(2R)-1-methylpiperidin-2-yl]carbonyl}amino)butanoyl]amino}pentanoyl]-1,3-thiazol-4-yl}carbonyl)amino]-5-phenylpentanoate]	> 1000	significant reduction in potency	> 1000	> 1000						
